From patent US20120101046A1, “PROPHYLACTIC OR THERAPEUTIC AGENT FOR RETINAL DISEASE AND METHOD FOR PROPHYLAXIS OR THERAPY OF RETINAL DISEASE USING JNK (C-JUN AMINO-TERMINAL KINASE) - INHIBITORY PEPTIDE, AND USE OF THE PEPTIDE” (priority 2009, published 2012)
Like-named read-outs stand apart in the source and are kept apart here. Non-standard residues stand in square brackets, D forms with d. Residues, ends and D or L forms follow the SMILES beside them.

How the values were obtained:
[1] = system: tunicamycin-induced rat photoreceptor cell damage model; conditions: rats, intravitreal, 2.7 μg/eye, 7 days after tunicamycin administration
Protocol: Such a model was thus used to evaluate the usefulness of the JNK-inhibitory peptide of the present invention against photoreceptor cell damage.
General anesthesia was induced in rats by intramuscular administration of 1 mL/kg of a mixture (7:1) of a 5% (W/V) ketamine hydrochloride injection solution and a 2% xylazine hydrochloride injection solution. A 0.5% (W/V) tropicamide-0.5% phenylephrine hydrochloride ophthalmic solution was instilled into their eyes to cause dilation of the pupils. Under conditions that ocular fundus is visualized, a microsyringe (25 μL volume, Hamilton) fitted with a 33 G needle was used and inserted into the vitreous cavity. To a control group, 54 of a mixture (1:9) of dimethyl sulfoxide and physiological saline was administered. […]
After 7 days from the administration of tunicamycin, general anesthesia was induced in the rats under dark adaptation by intramuscular administration of 1 mL/kg of a mixture (7:1) of a 5% (W/V) ketamine hydrochloride injection solution and a 2% xylazine hydrochloride injection solution. […] Then, using an electroretinogram (ERG) measurement apparatus (manufactured by Tomey Corporation, portable ERG&VEP LE-3000), ERGs (a-wave) were measured. Suppression ratio against reduction in ERG amplitude was subsequently calculated using an equation 4 shown below. […]

[2] = system: spermidine-induced retinal degeneration model; assay: Spermidine-induced retinal degeneration model, ERG (a-wave) measurement; assay type: in vivo; conditions: rats, intravitreal
Excerpt: Therefore, a spermidine-induced retinal degeneration model is used as a model for evaluating therapeutic agents for diseases involving retinal pigment epithelial damage, such as atrophic AMD (Invest. Ophthalmol. Vis. Sci., 48 (1), 455-463 (2007) (NPL 1); Invest. Ophthalmol. Vis. Sci. 51, ARVO E-abstract 3644 (2010); etc.). Thus, an effect of the JNK-inhibitory peptide of the present invention on photoreceptor cell damage caused by retinal pigment epithelial damage was investigated using the aforementioned model, and then compared with that obtained by the representative JNK-inhibitor, SP600125.
To a control group, 10 μL of Dulbecco PBS was administered. To a vehicle-administered group, 10 μL of a 2 mM solution of spermidine dissolved in Dulbecco PBS was administered. To a peptide A-administered group, a 4 mM solution of spermidine dissolved in Dulbecco PBS was mixed with 0.6 mg/mL peptide A dissolved in Dulbecco PBS to give a 1:1 mixture, and 10 μL of the solution was administered into the vitreous cavity. To an SP600125-administered group, spermidine was dissolved in a 0.3 mg/mL solution of SP600125 dissolved in Dulbecco PBS to give a concentration of 2 mM, and 10 μL of the solution was administered into the vitreous cavity. As spermidine, “Spermidine, Trihydrochloride” (Cat. No. 56766), purchased from Calbiochem, was used. […] As SP600125, “SP600125” (Cat. No. S5567-50 MG), purchased from Sigma Aldrich, was used.
Suppression ratios against reduction in ERG amplitude were subsequently calculated using an equation 1 shown below.
Suppression ratio against reduction in ERG amplitude (%)=((Ex−Ev)/(Ec−Ev))×100, [Equation 1]

[3] = system: laser-induced rat choroidal neovascularization model; assay: Laser-induced rat choroidal neovascularization model, fluorescent fundus angiography; assay type: in vivo; conditions: rats, intravitreal, 3 μg/eye, day 7 after photocoagulation
Protocol: As a pharmacological test model for investigating an inhibitory effect on choroidal neovascularization, a laser-induced choroidal neovascularization model is widely used (Folia Ophthalmologica Japonica, 45, 853-856 (1994)).
Photocoagulation was subsequently performed using a krypton laser photocoagulator (manufactured by NIDEK, a multicolor laser photocoagulator MC-7000). With focusing laser beam on the deep retinal layers, photocoagulation was conducted in the posterior portion of the ocular fundus at 8 spots per eye in a dispersed manner, while avoiding thick retinal blood vessels. After photocoagulation, fundus photography was performed to identify the laser-irradiated sites.
To a vehicle-administered group, 5 μL of physiological saline was administered.
Subsequently, 0.1 mL of a 10% fluorescein sodium solution was injected via the tail vein, and fluorescent fundus angiography (manufactured by Kowa, Fundus Camera Kowa PROIII) was performed. In fluorescent fundus angiography, spots at which fluorescence exposure was not observed was determined as negative (without neovascularization), and spots at which fluorescence exposure was observed were determined as positive (with neovascularization). Moreover, when there were two photocoagulation sites at which slight fluorescence exposure was observed, these photocoagulation sites were determined as positive (with neovascularization). […]

[4] = 3 μg/eye, 13 days after spermidine administration

Structure (SMILES): CC(C)C[C@@H](NC(=O)[C@@H](CC(N)=O)NC(=O)[C@@H](CC(C)C)NC(=O)[C@H](NC(=O)[C@H](NC(=O)[C@H]1CCCN1C(=O)[C@@H](CCCNC(=N)N)NC(=O)[C@@H](CCCCN)NC(=O)[C@H]1CCCN1C(=O)[C@@H](CCCNC(=N)N)NC(=O)[C@H]1CCCN1C(=O)[C@H]1CCCN1C(=O)[C@@H](CCCNC(=N)N)NC(=O)[C@@H](CCCNC(=N)N)NC(=O)[C@@H](CCCNC(=N)N)NC(=O)[C@@H](CCC(N)=O)NC(=O)[C@@H](CCCNC(=N)N)NC(=O)[C@@H](CCCNC(=N)N)NC(=O)[C@@H](CCCCN)NC(=O)[C@@H](CCCCN)NC(=O)[C@@H](CCCNC(=N)N)NC(=O)CN)[C@H](C)O)[C@H](C)O)C(=O)N[C@H](Cc1ccccc1)C(=O)N1CCC[C@@H]1C(=O)N[C@H](CCC(N)=O)C(=O)N[C@@H](C(=O)N1CCC[C@@H]1C(=O)N[C@H](CCCNC(=N)N)C(=O)N[C@H](CO)C(=O)N[C@H](CCC(N)=O)C(=O)N[C@H](CC(=O)O)C(=O)O)C(C)C [Peptide A] (H-G[dR][dK][dK][dR][dR][dQ][dR][dR][dR][dP][dP][dR][dP][dK][dR][dP][dT][dT][dL][dN][dL][dF][dP][dQ][dV][dP][dR][dS][dQ][dD]-OH)
- Suppression ratio against Reduction in ERG (a-Wave) amplitude (%) [1]: 50.0%
- Suppression ratio against Reduction in ERG (a-Wave) amplitude (%) ([1]; listed as peptide A): approximately 50%
- Suppression ratio against Reduction in ERG (a-Wave) amplitude (%) [2, 4]: 72.7%
- Suppression ratio against Reduction in ERG (a-Wave) amplitude (%) ([2]; 3 μg/eye, 13 days after spermidine administration, listed as peptide A): approximately 73%
- Suppression Ratio (%) of Choroidal Neovascularization Development [3]: 14.3%
- Suppression Ratio (%) of Choroidal Neovascularization Development ([3]; listed as peptide A): approximately 14%

Structure (SMILES): Oc1c2ccccc2c2c3c(cccc13)N=N2 [SP600125]
- damage suppression effect in the spermidine model [2]: no damage suppression effect
- Suppression ratio against Reduction in ERG (a-Wave) amplitude (%) [2, 4]: −17.6%
- aggravated the reduction in ERG amplitude [2, 4]: approximately 18%
